{"source": "paper PMC6694107", "about": "“Characterization and overproduction of cell-associated cholesterol oxidase ChoD from Streptomyces lavendulae YAKB-15” (Scientific Reports, 2019)", "test_system": "T1, ChoD", "T1 construct": "ORF 547 aa including TAT signal; FAD enzyme", "assay": "ABTS/peroxidase coupled H2O2 assay, […] nm, initial rates", "type": "biochemical, Streptomyces lavendulae", "details": "pH 7 sodium-potassium phosphate, Triton X-100, ethanol (general assay); 8.4 nM enzyme, 4-168 µM cholesterol", "data": [{"smiles": "CC(C)CCC[C@@H](C)[C@H]1CC[C@H]2[C@@H]3CC=C4C[C@@H](O)CC[C@]4(C)[C@H]3CC[C@]12C", "note": "[cholesterol]", "values": [{"measurement": "Km", "value": 15.9, "unit": "µM"}]}]}
